# Results published in patent US10144715B2, “Piperazine derivatives as liver X receptor modulators” (priority 2014, dated 2018).
# Where two headings read alike, the source gives them in different places.
# Tests used:
# [1] = target: T1, Gal4 DNA binding domain fused to the LBD of LXRβ in HEK293 cells (Homo sapiens (Human), UniProt P55055); test: cell-based; format: cell-based
# [2] = target: T2, LXR β LBD protein (Homo sapiens (Human), UniProt P55055); test: biochemical; format: biochemical; details: for EC50: read-out: FRET LXRβ EC50
# Target sequence in this assay (P55055 222-460): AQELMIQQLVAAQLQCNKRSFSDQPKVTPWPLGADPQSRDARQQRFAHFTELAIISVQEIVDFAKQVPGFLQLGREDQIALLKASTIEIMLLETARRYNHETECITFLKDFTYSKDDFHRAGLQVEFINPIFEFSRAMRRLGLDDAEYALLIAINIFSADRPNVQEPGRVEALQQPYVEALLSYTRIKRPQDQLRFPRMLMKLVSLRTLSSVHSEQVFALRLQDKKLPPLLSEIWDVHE
# [3] = target: T2, LXR β LBD protein; test: biochemical; format: binding
# Target sequence in this assay (P55055 222-460 limits assumed): as the sequence (P55055 222-460) above
# [4] = target: T3, LXR α LBD protein (Homo sapiens (Human), UniProt Q13133); test: LXR α radioligand binding assay (SPA, competition with [3H]TO901317); details: read-out: LXRα Binding Ki
# T3 sequence (Q13133 209-447): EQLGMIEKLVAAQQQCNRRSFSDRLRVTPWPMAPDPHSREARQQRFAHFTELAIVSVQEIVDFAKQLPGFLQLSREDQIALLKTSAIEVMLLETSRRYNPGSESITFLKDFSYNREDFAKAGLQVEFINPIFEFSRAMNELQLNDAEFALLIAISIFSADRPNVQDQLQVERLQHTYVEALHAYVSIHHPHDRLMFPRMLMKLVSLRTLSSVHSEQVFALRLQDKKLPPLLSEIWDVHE
# [5] = target: T1, Gal4 DNA binding domain fused to the LBD of LXRβ in HEK293 cells; test: cell-based
# [6] = target: T4, Gal4 DNA binding domain fused to the LBD of LXRα in HEK293 cells (Homo sapiens (Human), UniProt Q13133); test: LXR luciferase transcriptional reporter gene assay, antagonist mode (200 nM T0901317), LXRα; format: cell-based; details: for IC50: read-out: Cell LXRα IC50
# T4 sequence (Q13133 209-447): as above
# [7] = target: T4, Gal4 DNA binding domain fused to the LBD of LXRα in HEK293 cells; test: LXR luciferase transcriptional reporter gene assay, agonist mode, LXRα; format: cell-based; details: for EC50: read-out: Cell LXRα EC50
# [8] = target: T3, LXR α LBD protein; test: Human LXRα coactivator recruitment FRET assay, agonist mode; format: biochemical
# Method in brief: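 LXRα- or LXRβ-LBD at 10 nM (2×) mixed with compound in DMSO, then fluorescein-SRC2-3 peptide 200 nM and Tb-anti-GST antibody 20 nM (4×) added; 2 h at rt. Time-resolved FRET read, 100 µs delay, 200 µs window; EC50 from four-parameter fit of percent control.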
# [9] = target: T3, LXR α LBD protein; details: antagonist mode, 250 nM T0901317, coactivator recruitment TR-FRET; for IC50: read-out: FRET LXRα IC50
# Method: (§1) This assay is based on the ability of the LXR-LBDs (LXRα and LXRβ) to recruit and interact with a co-activator peptide.
# (§2) Two μL of the DMSO solutions were transferred to the plate and 38 μL of 10 nM LXRα-LBD or LXRβ-LBD (2×) were added immediately to the wells. The plate was shaken for 5 min at rt on an orbital micro shaker (DPC MicroMix® 5), after which 40 μL of 200 nM fluorescein-SRC2-3 peptide and 20 nM Terbium-anti-GST-antibody (Cat# PV3550, Life Technologies, Grand Island, N.Y.) solution (4×) were added to all. The plate was sealed and shaken for 2 min at rt, and incubated at rt for 2 h without agitation. […] The delay and window times were set at 100 and 200 microseconds, respectively. […] The percent control vs. compound concentration data were fit into a four-parameter model, and EC50 values were calculated from the fit as the concentrations corresponding to the inflection points on the concentration-response curves.
# [10] = target: T2, LXR β LBD protein; details: read-out: FRET LXRβ IC50
# Target sequence in this assay (P55055 222-460): as the sequence (P55055 222-460) above
# Method: as §1, §2
# [11] = target: T2, LXR β LBD protein; test: biochemical
# Target sequence in this assay (P55055 222-460): as above
# Method: as §1, §2
# [12] = system: LXRα-LBD or LXRβ-LBD; test: Coactivator recruitment FRET assay, antagonist mode: agonist control signal (isoform not distinguished); format: biochemical, human; details: 250 nM T0901317, high TR-FRET signal in antagonist mode
# Method: When this assay was carried out in “antagonist” mode, 250 nM T0901317 (full LXR agonist) was added to induce nearly maximal SRC2-3 recruitment.
# [13] = antagonist mode, 200 nM T0901317, HEK293 reporter gene assay
# [14] = antagonist mode, 200 nM T0901317, HEK293 reporter gene assay, read-out: Cell LXRβ IC50
# [15] = agonist mode, read-out: Cell LXRβ EC50
# [16] = Biological Test Example 3, agonist mode
# [17] = Biological Test Example 1, read-out: LXRβ Binding Ki
# [18] = Biological Test Example 2, agonist mode
# T1 sequence (P55055 222-460 limits assumed): as the sequence (P55055 222-460) above
Molecule,IC50 [1],EC50 [2],Ki ([3]; read-out: LXRβ Binding Ki),Ki [4],EC50 [5],Cell LXRα efficacy [6],EC50 [7],EC50 ([8]; agonist mode),IC50 [9],EC50 ([7]; agonist mode),FRET LXRα efficacy ([8]; agonist mode),"Cell LXRβ efficacy [1, 13]",Cell LXRα efficacy [7],further results
"Cc1ccc(CN2CCN(c3cccc(S(C)(=O)=O)c3)C[C@@H]2c2ccccc2)cc1 (single isomer, unassigned) [46-6]",148 nM,> 50000 nM,63 nM,519 nM,> 20000 nM,957 (105) %,> 20000 nM,> 50000 nM,–,–,–,–,–,Cell LXRβ efficacy [1]: 148 (106) %; IC50 [6]: 957 nM
"CS(=O)(=O)c1cccc(N2CCN(Cc3ccc(C(F)(F)F)cc3)[C@H](c3ccccc3)C2)c1 (single isomer, unassigned) [46-14]",–,2740 nM,–,–,> 20000 nM,–,–,14200 nM,> 50000 nM,> 20000 nM,37%,–,–,FRET LXRβ efficacy [2]: 2742 (49) %; IC50 [10]: > 50000 nM
"C[C@]1(c2ccccc2)CN(c2cccc(S(C)(=O)=O)c2)CCN1Cc1ccc(C(F)(F)F)c(Cl)c1 (single isomer, unassigned) [46-34]",688 nM,257 nM,32 nM,–,587 nM,7451 (87) %,–,862 nM,–,2080 nM,40%,688 (70) %,2082 (24) %,"Cell LXRβ efficacy ([5]; agonist mode): 587 (10) %; IC50 [6, 13]: 7450 nM"
"CS(=O)(=O)c1cccc(N2CCN(C[C@H]3CC[C@@H](C(F)(F)F)CC3)[C@@H](c3ccccc3)C2)c1 (single isomer, unassigned) [48-31]",–,–,5 nM,42 nM,–,6705 (128) %,254 nM,401 nM,–,–,56%,96%,254 (61) %,"IC50 [1, 14]: 436 nM; FRET LXRβ efficacy ([2]; agonist mode): 37%; EC50 ([2]; agonist mode): 22 nM; Cell LXRβ efficacy ([5]; agonist mode): 35%; EC50 [5, 15]: 95 nM; IC50 [6]: 6700 nM"
"CS(=O)(=O)c1cccc(N2CCN(C[C@@H]3CCN(CC(F)(F)F)C3)[C@@H](c3ccccc3)C2)c1 (single isomer, unassigned) [48-61]",118 nM,112 nM,–,1420 nM,467 nM,870 (56) %,–,–,–,–,–,118 (72) %,2312 (23) %,"FRET LXRβ efficacy [2, 16]: 112 (23) %; Ki [3, 17]: 417 nM; Cell LXRβ efficacy [5, 18]: 467 (5) %; IC50 [6, 13]: 870 nM; EC50 [7, 18]: 2310 nM; EC50 [8, 16]: 347 nM; FRET LXRα efficacy [8, 16]: 26%"
"CC(C)[C@@H]1CN(c2cccc(S(C)(=O)=O)c2)CCN1C(=O)OC(C)(C)C [1-1, tert-butyl (R)-2-isopropyl-4-(3-(methylsulfonyl)phenyl)piperazine-1-carboxylate]",2000 nM,–,157 nM,1690 nM,467 nM,–,2780 nM,409 nM,–,–,60%,1996 (45) %,2778 (44) %,FRET LXRβ efficacy ([2]; agonist mode): 88%; EC50 ([2]; agonist mode): 15 nM; Cell LXRβ efficacy ([5]; agonist mode): 467 (34) %; IC50 [6]: > 10000 nM
"CC(C)[C@H]1CN(c2cccc(S(C)(=O)=O)c2)CCN1C(=O)OC(C)(C)C [2-2, tert-butyl (S)-2-isopropyl-4-(3-(methylsulfonyl)phenyl)piperazine-1-carboxylate]",–,–,–,> 3330 nM,> 20000 nM,–,–,23200 nM,–,> 20000 nM,82%,–,–,Ki [3]: 1930 nM; IC50 [11]: > 50000 nM
"CC(C)c1ccc(CN2CCN(c3cccc(S(C)(=O)=O)c3)C[C@@H]2c2ccccc2)cc1 [46-8, (S)-1-(4-isopropylbenzyl)-4-(3-(methylsulfonyl)phenyl)-2-phenylpiperazine]",1420 nM,> 50000 nM,227 nM,1720 nM,1360 nM,8904 (282) %,3200 nM,468 nM,–,–,15%,–,3200 (22) %,Cell LXRβ efficacy [1]: 1421 (96) %; Cell LXRβ efficacy [5]: 1358 (18) %; IC50 [6]: 8900 nM
"CS(=O)(=O)c1cccc(N2CCN(Cc3ccc(C(F)(F)F)cc3)[C@@H](c3ccc(F)cc3)C2)c1 [46-24, (S)-2-(4-fluorophenyl)-4-(3-(methylsulfonyl)phenyl)-1-(4-(trifluoromethyl)benzyl)piperazine]",5820 nM,347 nM,359 nM,–,636 nM,3139 (51) %,–,2700 nM,–,2710 nM,39%,5823 (95) %,2711 (31) %,"FRET LXRβ efficacy ([2]; agonist mode): 347 (45) %; Cell LXRβ efficacy ([5]; agonist mode): 636 (27) %; IC50 [6, 13]: 3140 nM"
"CS(=O)(=O)c1ccc(F)c(N2CCN(Cc3ccc(C(F)(F)F)nc3)C(c3ccccc3)C2)c1 (stereo not shown) [46-50, 4-(2-fluoro-5-(methylsulfonyl)phenyl)-2-phenyl-1-((6-(trifluoromethyl)pyridin-3-yl)methyl)piperazine]",–,–,–,–,–,–,–,–,–,–,–,–,–,FRET LXRα efficacy [9]: 102%
"CS(=O)(=O)c1cccc(N2CCN(Cc3ccc(C(F)(F)F)nc3)C(c3cccc(Cl)c3)C2)c1 (stereo not shown) [46-55, 2-(3-chlorophenyl)-4-(3-(methylsulfonyl)phenyl)-1-((6-(trifluoromethyl)pyridin-3-yl)methyl)piperazine]",–,–,–,–,–,–,–,6540 nM,> 50000 nM,2770 nM,25%,–,2773 (7) %,–
"Cc1cccc(C2CN(c3cccc(S(C)(=O)=O)c3)CCN2Cc2ccc(C(F)(F)F)nc2)c1 (stereo not shown) [46-62, 4-(3-(methylsulfonyl)phenyl)-2-(m-tolyl)-1-((6-(trifluoromethyl)pyridin-3-yl)methyl)piperazine]",–,–,–,–,–,–,> 20000 nM,7770 nM,> 50000 nM,–,32%,–,–,–
"CS(=O)(=O)c1cc(N2CCN(C[C@H]3CC[C@@H](C(F)(F)F)CC3)[C@@H](c3ccc(F)cc3)C2)ccc1F [48-48, (S)-4-(4-fluoro-3-(methylsulfonyl)phenyl)-2-(4-fluorophenyl)-1-(((1s,4R)-4-(trifluoromethyl)cyclohexyl)methyl)piperazine]",–,–,–,156 nM,–,–,460 nM,–,–,–,–,52%,460 (53) %,"IC50 [1, 14]: 2700 nM; FRET LXRβ efficacy [2, 16]: 40%; EC50 [2, 16]: 142 nM; Ki [3, 17]: 23 nM; Cell LXRβ efficacy [5, 18]: 31%; EC50 ([5]; Biological Test Example 2, agonist mode, read-out: Cell LXRβ EC50): 112 nM; IC50 [6]: > 10000 nM; EC50 [8, 16]: 1320 nM; FRET LXRα efficacy [8, 16]: 42%"
"CS(=O)(=O)c1cc(N2CCN(Cc3ccc(C(F)(F)F)nc3)C(c3ccccc3)C2)ccc1CO (stereo not shown) [Cpd No 47-1, (2-(methylsulfonyl)-4-(3-phenyl-4-((6-(trifluoromethyl)pyridin-3-yl)methyl)piperazin-1-yl)phenyl)methanol]",–,–,–,–,–,–,–,2020 nM,> 50000 nM,8400 nM,76%,–,8405 (46) %,–
O=S(=O)(c1ccccc1)N(CC(F)(F)F)c1ccc(C(O)(C(F)(F)F)C(F)(F)F)cc1 [TO901317],–,–,–,–,–,–,–,–,–,–,–,–,–,SRC2-3 recruitment [12]: ~75%
tert-butyl 4-(3-(methylsulfonyl)phenyl)-2-phenylpiperazine-1-carboxylate [1-5],–,–,–,–,–,–,4300 nM,4100 nM,> 50000 nM,–,63%,–,4297 (17) %,"FRET LXRβ efficacy ([2]; agonist mode): 78%; EC50 ([2]; agonist mode): 227 nM; Cell LXRβ efficacy ([5]; agonist mode): 21%; EC50 [5, 15]: 898 nM; IC50 ([10]; antagonist mode, 250 nM T0901317, coactivator recruitment TR-FRET): > 50000 nM"
tert-butyl (S)-2-benzyl-4-(3-(methylsulfonyl)phenyl)piperazine-1-carboxylate [1-7],–,–,–,–,–,–,2550 nM,11900 nM,> 50000 nM,–,33%,–,2550 (8) %,–
